Data on 15 compounds can be found in publication PMC11643516, “Design, Synthesis, Structural Insights, Tyrosinase Inhibition, and Sun Protection Factor of New Thiosemicarbazone Derivatives” (Molecules, 2024).

Where a name gives a salt, the structure may show the parent alone. Read-outs that look alike come from different tables or passages of the source.

Series [1] is described as follows: ABTS radical scavenging assay. Particulars: 734 nm after 1 min of incubation; mean ± SD of triplicate. On the procedure:
Samples of each compound (10 µL) were added to 990 µL of ABTS, and the reduction in the blue-green radical ABTS^+• by hydrogen-donating antioxidants was evaluated by measuring the absorbance at 734 nm after 1 min of incubation. All the measurements were carried out at least three times.

Series [2] in a line: DPPH radical scavenging assay. Conditions: 0.1 mM DPPH, 30 min in the dark, 517 nm; mean ± SD of triplicate. On the procedure: Radical scavenging activity of the thiosemicarbazone derivatives was estimated according to the previously reported method with slight modification using the stable DPPH radical. A solution of 0.1 mM DPPH radical was added to various concentrations of the compounds. The absorbance of the DPPH radical without an antioxidant, i.e., blank, was also measured. The mixture was shaken vigorously and kept at room temperature for 30 min in the dark. The absorbance of the reaction mixture was measured at 517 nm spectrophotometrically. All the determinations were performed in triplicate.

For a further series, the target named is mushroom tyrosinase. Nature of the series: Mushroom tyrosinase inhibition assay (L-DOPA, dopachrome formation at 492 nm). Particulars: L-DOPA substrate, pH 6.8, 37 °C; mean ± SD of triplicate experiments; read-out: IC50 against mushroom tyrosinase activity. In kind it is biochemical. The method, then:
Mushroom Tyr inhibition was assessed as described previously with minor modifications. […] L-DOPA was then added and the dopachrome formation was monitored at 492 nm. The measurements were taken using a FLUOstar OPTIMA (BMG Labtech, Offenburg, Germany). The IC50 value was determined by analysing dose–response curves.

For a further series, the target named is Tyrosinase. Particulars: L-DOPA as substrate, read-out: Tyrosinase Inhibitory Activity IC50, cited from earlier work.
The test system of the next series is B16 melanoma cells. On the set-up: method as in PMID 20863702. Conditions: read-out: Anti-Melanogenesis Activity IC50; cited from earlier work.

With `COc1ccc(S(=O)(=O)Oc2ccc(/C=N/NC(N)=S)cc2)cc1` [TCBS3, (E)-4-((2-carbamothioylhydrazineylidene)methyl)phenyl 4-methoxylbenzenesulfonate], the melting point fell in the range of 154 to 156 °C. Also, the “ABTS (% I ± SD), percentage of inhibition of free radicals” value in series [1] was found to be 35 ± 1%. The “DPPH (% I ± SD), percentage of inhibition of free radicals” value in series [2] is recorded as 33 ± 4%. Besides, at mushroom tyrosinase, the IC50 turned out to be 440 ± 10 nM.
Consider `COc1ccc(/C=N/NC(N)=S)cc1` [Compound 2], for which the results for the IC50 on Tyrosinase (ref 17) and at Tyrosinase (ref 20) were 440 nM and 1480 nM, respectively.
With `NC(=S)N/N=C/c1ccc(OS(=O)(=O)c2ccccc2)cc1` (as salt: benzenesulfonate) [TCBS1, (E)-4-((2-carbamothioylhydrazineylidene)methyl)phenyl benzenesulfonate], the melting point is 159 to 160 °C.
Turning to `NC(=S)N/N=C/c1ccccc1` [Compound 4], in the series with B16 melanoma cells, the IC50 was above 10000 nM.
Turning to `NC(=S)N/N=C/c1ccncc1` [Compound 6], the IC50 in the series on B16 melanoma cells is above 30000 nM.
For `NC(=S)N/N=C/c1ccc(OS(=O)(=O)c2ccc([N+](=O)[O-])cc2)cc1` (as salt: benzenesulfonate) [TCBS2, (E)-4-((2-carbamothioylhydrazineylidene)methyl)phenyl 4-nitrolbenzenesulfonate], the melting point was in the range of 226 to 228 °C.
Take `NC(=S)N/N=C/c1ccc(OS(=O)(=O)c2ccccc2)cc1` [TCBS1, (E)-4-((2-carbamothioylhydrazineylidene)methyl)phenyl benzenesulfonate]: the “ABTS (% I ± SD), percentage of inhibition of free radicals” value in series [1] is reported as 39 ± 1%. Also, the “DPPH (% I ± SD), percentage of inhibition of free radicals” value in series [2] came out at 26 ± 2%. The IC50 at mushroom tyrosinase amounted to 440 ± 30 nM.
`NC(=S)N/N=C/c1ccc(OS(=O)(=O)c2ccc(Cl)cc2)cc1` (as salt: benzenesulfonate) [TCBS5, (E)-4-((2-carbamothioylhydrazineylidene)methyl)phenyl 4-chlorobenzenesulfonate] came in with a melting point of 194 to 196 °C.
On to `Cc1ccc(S(=O)(=O)Oc2ccc(/C=N/NC(N)=S)cc2)cc1` [TCBS4, (E)-4-((2-carbamothioylhydrazineylidene)methyl)phenyl 4-methylbenzenesulfonate], for which the melting point lay within 195 to 197 °C. For the same compound, in series [1], the “ABTS (% I ± SD), percentage of inhibition of free radicals” value is on record as 30 ± 2%. The “DPPH (% I ± SD), percentage of inhibition of free radicals” value in series [2] was determined as 20 ± 1%. Besides, the IC50 at mushroom tyrosinase came to 440 ± 10 nM.
Take `NC(=S)N/N=C/c1ccc([N+](=O)[O-])cc1` [Compound 3]: at Tyrosinase (ref 19), the IC50 is 1900 nM.
As for `NC(=S)N/N=C/c1ccc(OS(=O)(=O)c2ccc([N+](=O)[O-])cc2)cc1` [TCBS2, (E)-4-((2-carbamothioylhydrazineylidene)methyl)phenyl 4-nitrolbenzenesulfonate], in series [1], the “ABTS (% I ± SD), percentage of inhibition of free radicals” value is reported as 25 ± 4%. In series [2], the “DPPH (% I ± SD), percentage of inhibition of free radicals” value was 16 ± 2%. For the same compound, the IC50 on mushroom tyrosinase came to 660 ± 50 nM.
On to `NC(=S)N/N=C/c1ccc(Cl)cc1` [Compound 1], for which the figures for the IC50 on Tyrosinase (ref 17) and at Tyrosinase (ref 18) were 840 nM and 1900 nM, respectively.
`CS(=O)(=O)Oc1ccc(/C=N/NC(N)=S)cc1` [TCMS1, (E)-4-((2-carbamothioylhydrazineylidene)methyl)phenyl methanesulfonate]: the melting point was in the range of 224 to 226 °C. Further, in series [1], the “ABTS (% I ± SD), percentage of inhibition of free radicals” value is given as 42 ± 4%. Moreover, in series [2], the “DPPH (% I ± SD), percentage of inhibition of free radicals” value was found to be 20 ± 2%. Further, at mushroom tyrosinase, the IC50 was determined as 1600 ± 20 nM.
`NC(=S)N/N=C/c1cccc2ccccc12` [Compound 5]: in the series on B16 melanoma cells, the IC50 is 1100 nM.
As to `NC(=S)N/N=C/c1ccc(OS(=O)(=O)c2ccc(Cl)cc2)cc1` [TCBS5, (E)-4-((2-carbamothioylhydrazineylidene)methyl)phenyl 4-chlorobenzenesulfonate], the “ABTS (% I ± SD), percentage of inhibition of free radicals” value in series [1] amounted to 22 ± 2%. For the same compound, in series [2], the “DPPH (% I ± SD), percentage of inhibition of free radicals” value worked out at 32 ± 5%. In addition, the IC50 on mushroom tyrosinase stood at 710 ± 20 nM.
